The results in this text go back to patent US8912181B2 (Taiho Pharmaceutical Co., Ltd., priority 2011, dated 2014).

Experiment [1] addresses human HSP90 alpha protein (N-terminal, amino acids 2 to 236) (Homo sapiens (Human), UniProt P07900). The experiment in a line: Determination of HSP90-binding activity (AlphaScreen competitive assay with biotinylated geldanamycin). The settings on record: inhibition of binding of biotinylated geldanamycin to purified HSP90 N-terminal protein, read-out: HSP-binding activity IC50. The method, boiled down:
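His-tagged N-terminal construct (aa 2–236) expressed in E. coli and purified was preincubated with compound 2 h at room temperature, then biotinylated geldanamycin (40 nM/well) added for 1 h. AlphaScreen nickel-chelate acceptor/streptavidin donor beads, 1 h dark; percent inhibition calculated against no-compound signal.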
A general note: Bead proximity is the source of the signal in Alpha formats.

The next experiment relates to SK-BR-3 cells. The experiment in a line: Determination of cell growth inhibition (crystal violet staining method). It counts as cell-based. The conditions noted are these: Homo sapiens; breast cancer cells SK-BR-3, 72 hours culture with test substance. Put shortly:
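SK-BR-3 cells seeded 5,000/well, cultured 24 h at 37 °C, then exposed to compound for 72 h. Cells fixed with glutaraldehyde, stained with 0.05% crystal violet, eluted and read at 540 nm; percent growth inhibition calculated versus untreated wells.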

As a reminder, the IC50 is the concentration at which inhibition is half-maximal. As for `NC(=O)c1ccc(-c2nccc3c(-c4cnc5nc[nH]c5c4)cccc23)cc1NC1CCC(O)CC1` (stereo not shown) [Example 12], the IC50 turned out to be 70 nM in experiment [1] and 170 nM with SK-BR-3 cells.

Consider `Cc1ccc(-c2cn(-c3cccc4c(-c5ccc(C(N)=O)c(N)c5)cc(C(C)C)nc34)cn2)cn1` [Example 125, 2-Amino-4-(2-isopropyl-8-(4-(6-methylpyridin-3-yl)-1H-imidazol-1-yl)quinolin-4-yl)benzamide], for which the figures for the IC50 (in experiment [1]; in the experiment on SK-BR-3 cells) were 160 nM and 10 nM, respectively.

For the molecule `Cc1cc2c(-n3cnc(-c4cnn(C)c4)c3)cccc2c(-c2ccc(C(N)=O)c(NC(C)C)c2)n1` [Example 67, 2-(Isopropylamino)-4-(3-methyl-5-(4-(1-methyl-1H-pyrazol-4-yl)-1H-imidazol-1-yl)isoquinolin-1-yl)benzamide], the 50% inhibitory concentration (IC50) turned out to be 210 nM in experiment [1] and 20 nM in the experiment on SK-BR-3 cells.

Turning to `Cn1cc(-c2cn(-c3cccc4c(-c5ccc(C(N)=O)c(NC(C)(C)C)c5)cc(C(F)(F)F)nc34)cn2)cn1` [Example 86, 2-(Tert-butylamino)-4-(8-(4-(1-methyl-1H-pyrazol-4-yl)-1H-imidazol-1-yl)-2-(trifluoromethyl)quinolin-4-yl)benzamide], the half-maximal inhibitory concentration (IC50) in experiment [1] was found to be 100 nM; with SK-BR-3 cells, 10 nM.

On to `Cn1cc(-c2cn(-c3cccc4c(-c5ccc(C(N)=O)nc5)cc(C(F)(F)F)nc34)cn2)cn1` [Example 83, 5-(8-(4-(1-Methyl-1H-pyrazol-4-yl)-1H-imidazol-1-yl)-2-(trifluoromethyl)quinolin-4-yl)picolinamide], for which the values for the IC50 (in experiment [1]; with SK-BR-3 cells) were 210 nM and 100 nM, respectively.

Regarding `NC(=O)c1ccc(-c2nccc3c(-c4cncc(CO)c4)cccc23)cc1NC1CCC(O)CC1` (stereo not shown) [Example 17, 2-(4-Hydroxycyclohexylamino)-4-(5-(5-(hydroxymethyl)pyridin-3-yl)isoquinolin-1-yl)benzamide], the values for the IC50 (in experiment [1]; in the experiment on SK-BR-3 cells) were 100 nM and 280 nM, respectively.

Take `Cn1cc(-c2cn(-c3cccc4c(-c5ccc(C(N)=O)c(N)c5)nccc34)cn2)cn1` [Example 128, 2-Amino-4-(5-(4-(1-methyl-1H-pyrazol-4-yl)-1H-imidazol-1-yl)isoquinolin-1-yl)benzamide]: the IC50 in experiment [1] was found to be 310 nM; with SK-BR-3 cells it was 1060 nM.

On to `Cc1cc2c(-n3cnc(-c4cnn(C)c4)c3)cccc2c(-c2ccc(C(N)=O)cc2C)n1` [Example 95, 3-Methyl-4-(3-methyl-5-(4-(1-methyl-1H-pyrazol-4-yl)-1H-imidazol-1-yl)isoquinolin-1-yl)benzamide], for which the values for the IC50 (in experiment [1]; with SK-BR-3 cells) were 400 nM and 1020 nM, respectively.

Take `COCCNc1cc(-c2nc(C)cc3c(-n4cnc(-c5cnn(C)c5)c4)cccc23)ccc1C(N)=O` [Example 98, 2-(2-Methoxyethylamino)-4-(3-methyl-5-(4-(1-methyl-1H-pyrazol-4-yl)-1H-imidazol-1-yl)isoquinolin-1-yl)benzamide]: the IC50 in experiment [1] was 80 nM; in the experiment with SK-BR-3 cells, 20 nM.

For the molecule `Cn1cc(-c2cn(-c3cccc4c(-c5ccc(C(N)=O)c(N)c5)ccnc34)cn2)cn1` [Example 132, 2-Amino-4-(8-(4-(1-methyl-1H-pyrazol-4-yl)-1H-imidazol-1-yl)quinolin-4-yl)benzamide], the values for the IC50 (in experiment [1]; in the experiment on SK-BR-3 cells) were 320 nM and 960 nM, respectively.

`CCNc1cc(-c2cc(C(F)(F)F)nc3c(-n4cnc(-c5cnn(CC)c5)c4)cccc23)ccc1C(N)=O` [Example 89, 4-(8-(4-(1-Ethyl-1H-pyrazol-4-yl)-1H-imidazol-1-yl)-2-(trifluoromethyl)quinolin-4-yl)-2-(ethylamino)benzamide]: the IC50 is 220 nM in experiment [1] and 10 nM in the experiment on SK-BR-3 cells.

For the molecule `NC(=O)c1ccc(-c2nccc3c(-c4cnc5cc(C=O)ccc5c4)cccc23)cc1NC1CCC(O)CC1` (stereo not shown) [Example 45, 4-(5-(7-Formylquinolin-3-yl)isoquinolin-1-yl)-2-(4-hydroxycyclohexylamino)benzamide], the IC50 in experiment [1] came to 220 nM; with SK-BR-3 cells it was 30 nM.

For the molecule `CC(=O)Nc1cncc(-c2cccc3c(-c4ccc(C(N)=O)c(NC5CCC(O)CC5)c4)nccc23)c1` (stereo not shown) [Example 27, 4-(5-(5-Acetamidepyridin-3-yl)isoquinolin-1-yl)-2-(4-hydroxycyclohexylamino)benzamide], the IC50 was found to be 150 nM in experiment [1] and 540 nM in the experiment on SK-BR-3 cells.

As to `CCNc1cc(-c2cc(C(F)(F)F)nc3c(-n4cnc(-c5cccnc5)c4)cccc23)ccc1C(N)=O` [Example 77, 2-(Ethylamino)-4-(8-(4-(pyridin-3-yl)-1H-imidazol-1-yl)-2-(trifluoromethyl)quinolin-4-yl)benzamide], the IC50 in experiment [1] was found to be 170 nM; in the experiment on SK-BR-3 cells, 10 nM.

As to `NC(=O)c1ccc(-c2ccnc3c(-n4cnc(-c5cccnc5)c4)cccc23)cc1N` [Example 133], the IC50 in experiment [1] stood at 840 nM; in the experiment on SK-BR-3 cells it was 1320 nM.

Regarding `CC(C)(C)Nc1cc(-c2nccc3c(-c4cnc5ccccc5c4)cccc23)ccc1C(N)=O` [Example 126, 2-(Tert-butylamino)-4-(5-(quinolin-3-yl)isoquinolin-1-yl)benzamide], the figures for the IC50 (in experiment [1]; with SK-BR-3 cells) were 1530 nM and 350 nM, respectively.

Turning to `Cc1cc2c(-c3cnc4ccccc4c3)cccc2c(-c2ccc(C(N)=O)c(NC3CCC(O)CC3)c2)n1` (stereo not shown) [Example 7, 2-(4-Hydroxycyclohexylamino)-4-(3-methyl-5-(quinolin-3-yl)isoquinolin-1-yl)benzamide], the IC50 was found to be 150 nM in experiment [1] and 10 nM with SK-BR-3 cells.

For `Cc1nc2ncc(-c3cccc4c(-c5ccc(C(N)=O)c(NC6CCC(O)CC6)c5)nccc34)cc2[nH]1` (stereo not shown) [Example 40, 2-(4-Hydroxycyclohexylamino)-4-(5-(2-methyl-1H-imidazo[4,5-b]pyridin-6-yl)isoquinolin-1-yl)benzamide], the figures for the IC50 (in experiment [1]; in the experiment on SK-BR-3 cells) were 150 nM and 540 nM, respectively.

Turning to `NC(=O)c1ccc(-c2cccc3c(-c4cnc5ccccc5c4)nccc23)cc1NC1CCC(O)CC1` (stereo not shown) [Comp. Ex. 1, 2-(4-Hydroxycyclohexylamino)-4-(1-(quinolin-3-yl)isoquinolin-5-yl)benzamide, reference compound], the IC50 in experiment [1] was more than 100000 nM; in the experiment with SK-BR-3 cells it was 8420 nM.

As for `Cn1cc(-c2cn(-c3cccc4c(-c5ccc(C(N)=O)c(NC(C)(C)C)c5)nccc34)cn2)cn1` [Example 96, 2-(Tert-butylamino)-4-(5-(4-(1-methyl-1H-pyrazol-4-yl)-1H-imidazol-1-yl)isoquinolin-1-yl)benzamide], the IC50 in experiment [1] turned out to be 140 nM; in the experiment on SK-BR-3 cells, 60 nM.

On to `CC(C)c1cc(-c2ccc(C(N)=O)c(N)c2)c2cccc(-c3cnc4ccccc4c3)c2n1` [Example 121, 2-Amino-4-(2′-isopropyl-3,8′-biquinolin-4′-yl)benzamide], for which the IC50 in experiment [1] amounted to 180 nM; with SK-BR-3 cells, 20 nM.

As for `Cn1cc(-c2cn(-c3cccc4c(-c5ccc(C(N)=O)c(NC(C)(C)C)c5)ccnc34)cn2)cn1` [Example 130, 2-(Tert-butylamino)-4-(8-(4-(1-methyl-1H-pyrazol-4-yl)-1H-imidazol-1-yl)quinolin-4-yl)benzamide], the results for the IC50 (in experiment [1]; with SK-BR-3 cells) were 110 nM and 60 nM, respectively.

Consider `Cc1cc2c(-n3cnc(-c4cnn(C)c4)c3)cccc2c(-c2ccc(C(N)=O)c(NCC3CC3)c2)n1` [Example 68, 2-(Cyclopropylmethylamino)-4-(3-methyl-5-(4-(1-methyl-1H-pyrazol-4-yl)-1H-imidazol-1-yl)isoquinolin-1-yl)benzamide], for which the IC50 in experiment [1] was 190 nM; in the experiment with SK-BR-3 cells it was 10 nM.

As to `CCNc1cc(-c2cccc3c(-n4cnc(-c5cnn(C)c5)c4)ccnc23)ccc1C(N)=O` [Example 119, 2-(Ethylamino)-4-(4-(4-(1-methyl-1H-pyrazol-4-yl)-1H-imidazol-1-yl)quinolin-8-yl)benzamide], the IC50 in experiment [1] worked out at 830 nM; with SK-BR-3 cells, 840 nM.

`Cc1ccc(-c2cn(-c3cccc4c(-c5ccc(C(N)=O)c(NC(C)(C)C)c5)cc(C(F)(F)F)nc34)cn2)cn1` [Example 99, 2-(Tert-butylamino)-4-(8-(4-(6-methylpyridin-3-yl)-1H-imidazol-1-yl)-2-(trifluoromethyl)quinolin-4-yl)benzamide]: the results for the IC50 (in experiment [1]; in the experiment on SK-BR-3 cells) were 270 nM and 40 nM, respectively.

For `NC(=O)c1ccc(-c2nccc3c(-c4cnc5[nH]ccc5c4)cccc23)cc1NC1CCC(O)CC1` (stereo not shown) [Example 14, 4-(5-(1H-Pyrrolo[2,3-b]pyridin-5-yl)isoquinolin-1-yl)-2-(4-hydroxycyclohexylamino)benzamide], the IC50 in experiment [1] turned out to be 1500 nM; in the experiment on SK-BR-3 cells, 340 nM.

For the molecule `COc1cncc(-c2cccc3c(-c4ccc(C(N)=O)c(NC5CCC(O)CC5)c4)nccc23)c1` (stereo not shown) [Example 24, 2-(4-Hydroxycyclohexylamino)-4-(5-(5-methoxypyridin-3-yl)isoquinolin-1-yl)benzamide], the IC50 is 650 nM in experiment [1] and 690 nM in the experiment on SK-BR-3 cells.

For the molecule `CCNc1cc(-c2nc(C)cc3c(-n4cnc(-c5cnn(C)c5)c4)cccc23)ccc1C(N)=O` [Example 66, 2-(Ethylamino)-4-(3-methyl-5-(4-(1-methyl-1H-pyrazol-4-yl)-1H-imidazol-1-yl)isoquinolin-1-yl)benzamide], the IC50 in experiment [1] came to 150 nM; with SK-BR-3 cells, 20 nM.

Take `NC(=O)c1ccc(-c2nccc3c(-c4cncnc4)cccc23)cc1NC1CCC(O)CC1` (stereo not shown) [Example 43, 2-(4-Hydroxycyclohexylamino)-4-(5-(pyrimidin-5-yl)isoquinolin-1-yl)benzamide]: the figures for the IC50 (in experiment [1]; in the experiment on SK-BR-3 cells) were 690 nM and 1100 nM, respectively.
